In data set [1] the test system is orally 32P phosphate loaded rats. The data set can be described thus: Blood radioactivity increase inhibiting action in orally 32P phosphate loaded rats (phosphate absorption inhibitory action). The class given is in vivo. Conditions: Rattus norvegicus, 0.5 h; 3 mg/kg oral, male Wistar rats; from serum radioactivity AUC0-30min vs control group; read-out: Phosphate absorption inhibitory rate (%). The protocol:
Blood Radioactivity Increase Inhibiting Action in Orally ^32P Phosphate Loaded Rats (Phosphate Absorption Inhibitory Action)
Male Wistar rats (6 to 7 weeks old) were fasted for 24 hours and used as experimental animals. The compound was dissolved or suspended with a solvent, and was used at a concentration of 0.6 mg/mL. The compound-administered animals were forcibly orally administered with the compound at a dose of 3 mg/kg. Control-group animals were administered a solvent containing no compound at a dose of 5 mL/kg. After 5 minutes from administration of the compound or from administration of the solvent, a ^32P-containing phosphate solution (8.3 mM NaH2PO4) was orally administered thereto at a dose of 7.2 mL/kg. After 15 minutes and 30 minutes, the blood was taken from the orbital venous plexus and the serum was collected. Radioactivity in 0.1 mL of the serum was measured by a liquid scintillation counter. AUC0-30min calculated from the measured counts was considered as a phosphate absorption amount. The phosphate absorption inhibitory rate was determined from the AUC0-30min value according to the following equation.
Phosphate absorption inhibitory rate (%)=(1−Phosphate absorption count of compound-administered group/Phosphate absorption count of control group)×100
As a result, it was confirmed that several compounds of the formula (I) have an intestinal phosphate absorption inhibitory action. With the several compounds of the formula (I), the phosphate absorption inhibitory rates at a pharmacological evaluation dose of 3 mg/kg are shown in Table 2.

The next data set addresses T1, rat NPT-IIb (Rattus norvegicus, UniProt Q9JJ09).
T1 construct: rat NPT-IIb ORF was cloned into p3×FLAG-CMV-10; 3xFLAG (N); expressed in transfected cells
T1 sequence (Q9JJ09 1-695): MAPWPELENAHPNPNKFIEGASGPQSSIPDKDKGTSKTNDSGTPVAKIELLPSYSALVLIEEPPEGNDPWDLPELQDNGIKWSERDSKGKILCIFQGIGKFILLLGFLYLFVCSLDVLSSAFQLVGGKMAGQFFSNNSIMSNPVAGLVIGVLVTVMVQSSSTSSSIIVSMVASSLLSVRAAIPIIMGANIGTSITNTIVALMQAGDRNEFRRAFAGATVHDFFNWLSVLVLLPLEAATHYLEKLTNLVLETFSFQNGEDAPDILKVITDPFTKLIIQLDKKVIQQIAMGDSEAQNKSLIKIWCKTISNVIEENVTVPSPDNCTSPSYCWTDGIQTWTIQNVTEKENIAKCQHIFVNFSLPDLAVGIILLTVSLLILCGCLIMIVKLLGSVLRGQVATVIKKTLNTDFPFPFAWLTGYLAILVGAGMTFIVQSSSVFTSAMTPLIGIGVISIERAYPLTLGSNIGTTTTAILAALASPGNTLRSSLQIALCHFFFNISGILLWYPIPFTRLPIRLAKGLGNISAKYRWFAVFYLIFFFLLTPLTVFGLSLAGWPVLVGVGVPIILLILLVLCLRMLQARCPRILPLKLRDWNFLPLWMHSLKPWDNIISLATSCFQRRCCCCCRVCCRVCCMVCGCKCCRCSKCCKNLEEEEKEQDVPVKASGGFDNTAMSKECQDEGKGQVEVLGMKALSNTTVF
The data set can be described thus: 33P phosphate uptake inhibiting action of rat NPT-IIb expressing cell. The class given is cell-based. Conditions: HEK293; evaluation concentration 1 μM; 33P uptake in rat NPT-IIb stably expressing 293 cells; read-out: Rat NPT-IIb inhibitory rate (%). From the text: Test Example 1: ^33P Phosphate Uptake Inhibiting Action of Rat NPT-IIb Expressing Cell
Preparation of Rat NPT-IIb Expressing Cell
Using rat small intestine cDNA library as a template, rat NPT-IIb ORF was cloned into p3×FLAG-CMV-10 by PCR according to a standard method. Then, the cloned rat NPT-IIb expressing plasmid was transfected into 293 cells, and G418 was used to obtain a rat NPT-11b-stably expressing cell line.
Evaluation System on Inhibition of Phosphate Uptake into Rat NPT-IIb Expressing Cell
The rat NPT-Hb expressing cells were seeded into a 96-well plate and incubated overnight. The medium was taken out and washed with buffer A (137 mM N-methyl-D-glucamine, 5.4 mM KCl, 2.8 mM CaCl2, 1.2 mM MgCl2, 10 mM HEPES (adjusted to pH 7.4 with HCl)), and then buffer B (137 mM NaCl, 5.4 mM KCl, 2.8 mM CaCl2, 1.2 mM MgCl2, 0.1 mM KH2PO4, 10 mM HEPES (adjusted to pH 7.4 with KOH)) was added thereto. Then, a compound having 10-fold higher concentration relative to the evaluation concentration was prepared by dilution with the buffer B and added thereto, followed by incubation in CO2 incubator. Buffer B supplemented 50 μCi/mL ^33P was added thereto, followed by further incubation in a CO2 incubator. After the reaction, the buffer was taken out and the cells were washed with buffer C (137 mM NaCl, 10 mM Tris/HCl pH 7.2). Then, Microscint-20 was added thereto and ^33P uptake was measured by using TopCount. The inhibitory rate was determined according to the following equation.
Inhibitory rate (%)=(1−(^33P uptake of drug-treated well)/(^33P uptake of DMSO-added well))×100
For several compounds of the formula (I), rat NPT-11b inhibitory activity at a pharmacological evaluation concentration of 1 μM is shown in Table 1. Here, Ex represents Example No. as denoted below (this shall apply hereinafter).

Molecule `CCN([C@H]1CC[C@H](C(=O)O)CC1)S(=O)(=O)c1cccc(C(=O)Nc2sc3c(c2C(=O)Nc2ccc(CCc4ccc(C(=O)O)cc4)cc2)CCCC3)c1` [Example 2, 4-{2-[4-({[2-({3-[(trans-4-carboxycyclohexyl)(ethyl)sulfamoyl]benzoyl}amino)-4,5,6,7-tetrahydro-1-benzothiophen-3-yl]carbonyl}amino)phenyl]ethyl}benzoic acid] returned a melting point of 262.8 °C. Moreover, the inhibition in vivo at 3 mg/kg in data set [1] was at least 60%. In addition, the inhibition at 1 µM at rat NPT-IIb was 83%.
In the case of `O=C(O)c1ccc(CCc2ccc(NC(=O)c3c(NC(=O)c4cccc(S(=O)(=O)N(C5CC5)[C@H]5CC[C@H](C(=O)O)CC5)c4)sc4c3CCCC4)cc2)cc1` [Example 4, 4-{2-[4-({[2-({3-[(trans-4-carboxycyclohexyl)(cyclopropyl)sulfamoyl]benzoyl}amino)-4,5,6,7-tetrahydro-1-benzothiophen-3-yl]carbonyl}amino)phenyl]ethyl}benzoic acid], the inhibition in vivo at 3 mg/kg in data set [1] is at least 60%. The inhibition at 1 µM at rat NPT-IIb amounted to 82%.
Turning to `O=C(O)c1ccc(CCc2ccc(NC(=O)c3c(NC(=O)c4cccc(S(=O)(=O)N(C5CC5)[C@H]5CC[C@@H](C(=O)O)CC5)c4)sc4c3CCCC4)cc2)cc1` [Example 5, 4-{2-[4-({[2-({3-[(cis-4-carboxycyclohexyl)(cyclopropyl)sulfamoyl]benzoyl}amino)-4,5,6,7-tetrahydro-1-benzothiophen-3-yl]carbonyl}amino)phenyl]ethyl}benzoic acid], on rat NPT-IIb, the inhibition at 1 µM was 87%.
The molecule `CCOC(=O)CN(C1CC1)S(=O)(=O)c1cccc(C(=O)Nc2sc3c(c2C(=O)Nc2ccc(CCc4ccc(C(=O)OC)cc4)cc2)CCCC3)c1` [Example 6, methyl 4-{2-[4-({[2-({3-[cyclopropyl(2-ethoxy-2-oxoethyl)sulfamoyl]benzoyl}amino)-4,5,6,7-tetrahydro-1-benzothiophen-3-yl]carbonyl}amino)phenyl]ethyl}benzoate] returned a melting point of 186.8 °C.
As to `CN(CCC(=O)O)S(=O)(=O)c1cccc(C(=O)Nc2sc3c(c2C(=O)Nc2ccc(CCc4ccc(C(=O)O)cc4)cc2)CCCC3)c1` [Example 10, 4-{2-[4-({[2-({3-[(2-carboxyethyl)(methyl)sulfamoyl]benzoyl}amino)-4,5,6,7-tetrahydro-1-benzothiophen-3-yl]carbonyl}amino)phenyl]ethyl}benzoic acid], the melting point turned out to be 230.3 °C. Besides, the inhibition at 1 µM on rat NPT-IIb was determined as 42%.
The molecule `O=C(O)CCCN(C1CC1)S(=O)(=O)c1cccc(C(=O)Nc2sc3c(c2C(=O)Nc2ccc(CCc4ccc(C(=O)O)cc4)cc2)CCCC3)c1` [Example 12, 4-{2-[4-({[2-({3-[(3-carboxypropyl)(cyclopropyl)sulfamoyl]benzoyl}amino)-4,5,6,7-tetrahydro-1-benzothiophen-3-yl]carbonyl}amino)phenyl]ethyl}benzoic acid] had a melting point of 250.8 °C. In addition, the inhibition in vivo at 3 mg/kg in data set [1] is at least 60%. The inhibition at 1 µM on rat NPT-IIb was 76%.
As to `CCN(C1(C(=O)O)CC1)S(=O)(=O)c1cccc(C(=O)Nc2sc3c(c2C(=O)Nc2ccc(CCc4ccc(C(=O)O)cc4)cc2)CCCC3)c1` [Example 14, 4-{2-[4-({[2-({3-[(1-carboxycyclopropyl)(ethyl)sulfamoyl]benzoyl}amino)-4,5,6,7-tetrahydro-1-benzothiophen-3-yl]carbonyl}amino)phenyl]ethyl}benzoic acid], the melting point was determined as 254.7 °C. Moreover, the inhibition in vivo at 3 mg/kg in data set [1] stood at 47%. In addition, the inhibition at 1 µM on rat NPT-IIb is 71%.
Turning to `CC(C)N(C1(C(=O)O)CC1)S(=O)(=O)c1cccc(C(=O)Nc2sc3c(c2C(=O)Nc2ccc(CCc4ccc(C(=O)O)cc4)cc2)CCCC3)c1` [Example 17, 4-{2-[4-({[2-({3-[(1-carboxycyclopropyl)(isopropyl)sulfamoyl]benzoyl}amino)-4,5,6,7-tetrahydro-1-benzothiophen-3-yl]carbonyl}amino)phenyl]ethyl}benzoic acid], the melting point came out at 261.4 °C. Further, the inhibition at 1 µM at rat NPT-IIb turned out to be 75%.
On to `CCN(c1ccc(C(=O)O)cc1)S(=O)(=O)c1cccc(C(=O)Nc2sc3c(c2C(=O)Nc2ccc(CCc4ccc(C(=O)O)cc4)cc2)CCCC3)c1` [Example 21], for which the melting point came to 159.4 °C. Further, on rat NPT-IIb, the inhibition at 1 µM worked out at 85%.
As to `C[C@@]1(C(=O)O)CCCN1S(=O)(=O)c1cccc(C(=O)Nc2sc3c(c2C(=O)Nc2ccc(CCc4ccc(C(=O)O)cc4)cc2)CCCC3)c1` [Example 25, 1-[(3-{[3-({4-[2-(4-carboxyphenyl)ethyl]phenyl}carbamoyl)-4,5,6,7-tetrahydro-1-benzothiophen-2-yl]carbamoyl}phenyl)sulfonyl]-2-methylproline], on rat NPT-IIb, the inhibition at 1 µM is 52%.
For `CC(=O)N1CCN(S(=O)(=O)c2cccc(C(=O)Nc3sc4c(c3C(=O)Nc3ccc(CCc5ccc(C(=O)O)cc5)cc3)CCCC4)c2)CC1` [Example 27, 4-{2-[4-({[2-({3-[(4-acetylpiperazin-1-yl)sulfonyl]benzoyl}amino)-4,5,6,7-tetrahydro-1-benzothiophen-3-yl]carbonyl}amino)phenyl]ethyl}benzoic acid], the melting point stood at 241.4 °C. Moreover, the inhibition at 1 µM at rat NPT-IIb amounted to 58%.
`CN(CC(O)CO)S(=O)(=O)c1cccc(C(=O)Nc2sc3c(c2C(=O)Nc2ccc(CCc4ccc(C(=O)O)cc4)cc2)CCCC3)c1` (centres unmarked) [Example 29, 4-{2-[4-({[2-({3-[(2,3-dihydroxypropyl)(methyl)sulfamoyl]benzoyl}amino)-4,5,6,7-tetrahydro-1-benzothiophen-3-yl]carbonyl}amino)phenyl]ethyl}benzoic acid]: the inhibition at 1 µM at rat NPT-IIb was determined as 51%.
Regarding `CC(C)N(Cc1cccc(C(=O)O)c1)S(=O)(=O)c1cccc(C(=O)Nc2sc3c(c2C(=O)Nc2ccc(CCc4ccc(C(=O)O)cc4)cc2)CCCC3)c1` [Example 58], the inhibition in vivo at 3 mg/kg in data set [1] is at least 60%. At rat NPT-IIb, the inhibition at 1 µM amounted to 65%.
In the case of `CCOC(=O)C1(N(CC)S(=O)(=O)c2cccc(C(=O)Nc3sc4c(c3C(=O)Nc3ccc(CCc5ccc(C(=O)O)cc5)cc3)CCCC4)c2)CC1` [Example 70], the inhibition at 1 µM at rat NPT-IIb came out at 83%.
Regarding `CCCN([C@H]1CC[C@H](C(=O)O)CC1)S(=O)(=O)c1cccc(C(=O)Nc2sc3c(c2C(=O)Nc2ccc(CCCc4ccc(C(=O)O)cc4)cc2)CCCC3)c1` [Example 102], in data set [1], the inhibition in vivo at 3 mg/kg is at least 60%. Moreover, at rat NPT-IIb, the inhibition at 1 µM was 87%.
Take `CC(=O)N1CCN(S(=O)(=O)c2cccc(C(=O)Nc3sc4c(c3C(=O)Nc3ccc(CCCc5ccc(C(=O)O)cc5)cc3)CCCC4)c2)CC1` [Example 109]: the inhibition at 1 µM at rat NPT-IIb turned out to be 52%.

Broadly, the melting point is the temperature of the solid-liquid transition.

The values above are taken from patent US20130029973A1, “TETRAHYDROBENZOTHIOPHENE COMPOUND” (ASTELLAS PHARMA INC., priority 2010, published 2013).
